Target: T1, H3R membranes (H3R8-expressing HEK293 cell line) (Homo sapiens, UniProt Q9Y5N1)
T1 construct: expressed in transfected cells; pcDNA3.1(+) vector, G418 selection)
Assay: [35S] GTP gamma [S] binding assay
Assay type: biochemical
Details: inhibition of [35S]GTP gamma S binding to H3R membranes in presence of agonist R(-)alpha methylhistamine
Protocol: Membranes isolated as described in (Preparation of Histamine Receptor Subtype Membranes) are used in a [35S]GTPχS functional assay. Binding of [35S]GTPχS to membranes indicates agonist activity. Compounds of the invention of Formula I or Formula II are tested for their ability to inhibit binding in the presence of agonists. Alternately, the same transfected cell lines are used for a cAMP assay wherein H3R agonists inhibit forskolin-activated synthesis of cAMP. Compounds of Formula I or Formula II are tested for their ability to permit forskolin-stimulated cAMP synthesis in the presence of agonist.
cDNA for the human histamine 3 receptor is cloned and expressed as described in (A. Preparation H1R membranes), above. Transfected cells are selected using G418 ([…]), grown, and tested for histamine binding by the SPA described above. For total binding, cells are assayed in a SPA reaction described above containing 50 mM Tris-HCL (assay buffer), pH 7.6, 1 mg wheat germ agglutinin SPA beads (Amersham Pharmacia Biotech, #RPNQ0001), and 1 nM (^3H)-n-alpha-methylhistamine (NEN, NET1027) (total volume per well=200 μl). Thioperimide is added to determine non-specific binding. […]
Antagonist activity of selected compounds is tested for inhibition of [35S] […] Plates are counted in Wallac Trilux 1450 Microbeta scintillation counter for 1 minute. […]

T1 sequence (Q9Y5N1 whole entry): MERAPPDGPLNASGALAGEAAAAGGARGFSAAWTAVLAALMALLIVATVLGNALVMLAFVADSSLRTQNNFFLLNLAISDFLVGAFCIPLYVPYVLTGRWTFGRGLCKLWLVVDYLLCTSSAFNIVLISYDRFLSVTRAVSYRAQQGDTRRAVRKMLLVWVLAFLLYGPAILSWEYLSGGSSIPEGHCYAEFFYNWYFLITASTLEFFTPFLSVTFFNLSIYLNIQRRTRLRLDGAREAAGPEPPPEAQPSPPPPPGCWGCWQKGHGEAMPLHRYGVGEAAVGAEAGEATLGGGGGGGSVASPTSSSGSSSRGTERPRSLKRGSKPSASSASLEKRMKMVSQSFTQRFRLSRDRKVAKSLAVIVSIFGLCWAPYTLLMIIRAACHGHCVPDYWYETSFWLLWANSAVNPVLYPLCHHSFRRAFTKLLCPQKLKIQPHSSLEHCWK

Ki [nM] | SMILES
145 | CCCCOc1ccc(C(=O)N2CCC[C@@H]2CN2CCCC2)cc1
73.6 | COc1ccc(C(=O)N2CCC[C@H]2CN2CCCC2)cc1
